From ChEMBL document CHEMBL4428138, “Design, Synthesis, and Antitumor Evaluation of 4-Amino-(1H)-pyrazole Derivatives as JAKs Inhibitors” (ACS Med Chem Lett, 2016)

What follows are molecules tested on HEL (assay: Antiproliferative activity against HEL cells harboring JAK2 V617F mutant at 5 uM after 48 hrs by MTT assay).
Type: functional, Homo sapiens
For `Clc1ccccc1CNc1nc(Nc2cn[nH]c2)nc2ccccc12`, the Activity was under 50%.
Molecule `C#Cc1cccc(Nc2ccnc(Nc3cn[nH]c3)n2)c1` has an Activity of under 50%.
`COc1ccc(Nc2nc(Nc3cn[nH]c3)nc3ccccc23)cc1` was tested, and the Activity was under 50%.
For `Clc1ccccc1Nc1ccnc(Nc2cn[nH]c2)n1`, the Activity was under 50%.
`C#Cc1cccc(Nc2nc(Nc3cn[nH]c3)nc3ccccc23)c1` was tested, and the Activity was under 50%.
Molecule `COc1ccc(Nc2nc(Nc3cn[nH]c3)nc3[nH]ccc23)cc1` has an Activity of over 50%.
`Clc1ccc(Nc2nc(Nc3cn[nH]c3)nc3ccccc23)cc1` showed an Activity of under 50%.
`N#Cc1ccccc1Nc1ccnc(Nc2cn[nH]c2)n1` was tested, and the Activity was under 50%.
With `Fc1cnc(Nc2cn[nH]c2)nc1Nc1ccccc1` the Activity was under 50%.
In the case of `Clc1ccc(Nc2ccnc(Nc3cn[nH]c3)n2)cc1`, the Activity is reported as under 50%.
Work on `COc1ccc(Nc2nc(Nc3cn[nH]c3)ncc2F)cc1` yielded an Activity of under 50%.
`Clc1ccc(Nc2nc(Nc3cn[nH]c3)nc3[nH]ccc23)cc1` showed an Activity of over 50%.
